Source: paper PMC11726150, “Pre‐ADMET studies of 5‐(3′,4′‐dihydroxyphenyl)‐γ‐valerolactone, the bioactive intestinal metabolite of proanthocyanidins” (Archiv Der Pharmazie, 2024)
“Also recorded” adds a separate entry of the source. Like-named read-outs stand apart in the source and are kept apart here.

Columns and labels:
[1] = target: T1, CYP3A4 (Homo sapiens, UniProt P08684); assay: CYP inhibition assay; type: biochemical; details: read-out: half‐maximal inhibitory concentration (IC50)
T1 construct: purchased
Experimental: (§1) The inhibitory potential of VL toward the catalytic activity of CYP3A4 and CYP1A2 was investigated through CYP inhibition assays using high‐throughput CYP450 screening kits. Stock solutions of VL (10 mM in DMSO) and specific positive controls for each CYP isoform were serially diluted in methanol and reactions were performed in 96‐well plates according to the supplier's instructions. Briefly, 40 μL (×2.5) of test compound and 50 μL master premix were added to 96‐well plates. Plates were incubated for 10 min at room temperature to allow for sufficient interaction of the test compound and enzyme. Following incubation, 10 μL (×10) of enzyme‐specific substrates were added and plates were vortex‐mixed for 30 s. Further, fluorescence was measured at the specified excitation and emission wavelengths for each substrate as recommended per individual kit protocol. Ketoconazole (0.004, 0.01, 0.03, 0.11, 0.33, and 1 μM) and α‐naphthoflavone (0.004, 0.01, 0.03, 0.11, 0.33, and 1 μM) were used as positive controls for CYP3A4 and CYP1A2, respectively. IC50 values were obtained from concentration‐response curves generated by plotting the percentage of inhibition versus concentration.^[ [46] ^]

[2] = target: T2, CYP1A2 (Homo sapiens, UniProt P05177); assay: CYP inhibition assay; type: biochemical
T2 construct: purchased
T2 sequence (P05177 1-516): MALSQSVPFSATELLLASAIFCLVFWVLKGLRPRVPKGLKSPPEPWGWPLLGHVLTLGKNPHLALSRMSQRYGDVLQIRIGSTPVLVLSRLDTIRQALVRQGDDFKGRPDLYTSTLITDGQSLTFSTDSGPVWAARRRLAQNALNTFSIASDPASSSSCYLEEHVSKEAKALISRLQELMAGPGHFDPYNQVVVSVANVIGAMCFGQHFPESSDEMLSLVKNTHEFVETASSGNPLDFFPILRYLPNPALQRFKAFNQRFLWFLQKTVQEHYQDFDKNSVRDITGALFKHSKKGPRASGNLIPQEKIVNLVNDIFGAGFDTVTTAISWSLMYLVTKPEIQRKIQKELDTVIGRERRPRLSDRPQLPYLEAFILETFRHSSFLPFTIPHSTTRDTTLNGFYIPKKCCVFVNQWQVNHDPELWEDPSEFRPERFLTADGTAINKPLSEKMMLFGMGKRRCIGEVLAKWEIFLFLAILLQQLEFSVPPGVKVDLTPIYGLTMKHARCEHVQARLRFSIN
Experimental: as §1

[3] = system: Caco2 cells; assay: MTT cell viability assay; type: cell-based, human; details: Caco2, 1.5–50 µM, up to 24 and 48 h
Experimental: (§2) The effect of test samples on cell viability was measured using an MTT assay. Briefly, exponentially growing 2 × 10^4 cells/200 μL were seeded in 96‐well plates and allowed to grow until reaching their differentiation state. Cells were treated with different concentrations of VL (50–1.6 µM) and positive control camptothecin (30–1 μM) serially diluted in serum‐free medium. After incubation, 10 μL of MTT dye (5 mg/mL stock in PBS) was added to each well, and plates were additionally incubated for 4 h. Further, media were aspirated, and cells were washed with 100 μL of phosphate buffer saline. The formazan blue crystals formed by viable cells were dissolved in 150 μL of DMSO, and the absorbance was measured at 580 nm on a Bio‐Tek, Synergy HT Multi‐Mode, plate reader. The % decrease in viability of sample‐treated cells was calculated compared with vehicle‐treated cells.^[ [46] ^]

[4] = system: LS174T cells; assay: MTT cell viability assay; type: cell-based, human; details: 1.5–50 µM, up to 24 and 48 h
Experimental: as §2

[5] = system: HepG2 cells; assay: MTT cell viability assay; type: cell-based, human; details: HepG2, 1.5–50 µM, up to 24 and 48 h
Experimental: as §2

[6] = MTT cell viability assay; type: cell-based, human; details: human, Caco2 cells; Caco2, 1.5–50 µM, 6 h exposure; read-out: cells remaining viable
Experimental: as §2

[7] = target: T3, PXR (Homo sapiens, UniProt O75469); type: cell-based; design: expressed in transfected cells; host or cells: LS174T cells, transient electroporation; details: LS174T cells, all concentrations tested (1.5–50 μM), 24 h
T3 sequence (O75469 1-434): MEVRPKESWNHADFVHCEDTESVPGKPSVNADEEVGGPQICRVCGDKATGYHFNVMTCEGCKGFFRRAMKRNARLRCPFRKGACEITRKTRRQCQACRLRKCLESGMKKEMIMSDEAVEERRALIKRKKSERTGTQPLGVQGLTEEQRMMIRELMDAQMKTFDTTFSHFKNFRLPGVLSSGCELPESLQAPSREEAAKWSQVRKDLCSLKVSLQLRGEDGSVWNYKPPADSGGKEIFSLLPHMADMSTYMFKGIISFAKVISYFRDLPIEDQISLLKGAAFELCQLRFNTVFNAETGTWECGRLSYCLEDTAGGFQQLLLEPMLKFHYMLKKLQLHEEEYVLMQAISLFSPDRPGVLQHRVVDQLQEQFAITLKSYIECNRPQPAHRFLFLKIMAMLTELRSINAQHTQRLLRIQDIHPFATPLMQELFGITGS
Experimental: (§3) The PXR activation potential of VL was determined in transiently transfected HepG2 and LS174T cells as described earlier.^[ [50] ^] In brief, 24‐h‐old cells having 70%−80% confluency were trypsinized and transfected with pSG5‐hPXR (25 μg) and PCR‐5 (25 μg) plasmid DNA by electroporation at 180 V (1 pulse for 70 ms). Cells were incubated at room temperature for 8 min and floating dead cells were carefully removed. Cells were seeded in 96‐well plates at a density of 50,000 cells/well. […] Following 24 h of incubation, the culture medium was aspirated and 40 μL of luciferase reagent (Promega Corporation) was added to each well. Luminescence was measured using a Spectramax M5 plate reader (Molecular Devices) and the fold increase in luciferase activity among sample‐treated cells was calculated in comparison with the vehicle‐treated (DMSO) cells.

[8] = target: T3, PXR; type: cell-based; design: expressed in transfected cells; host or cells: HepG2 and LS174T cells, transient electroporation; details: HepG2 cells, all concentrations tested (1.5–50 μM), 24 h
Experimental: as §3

T1 sequence (P08684 whole entry): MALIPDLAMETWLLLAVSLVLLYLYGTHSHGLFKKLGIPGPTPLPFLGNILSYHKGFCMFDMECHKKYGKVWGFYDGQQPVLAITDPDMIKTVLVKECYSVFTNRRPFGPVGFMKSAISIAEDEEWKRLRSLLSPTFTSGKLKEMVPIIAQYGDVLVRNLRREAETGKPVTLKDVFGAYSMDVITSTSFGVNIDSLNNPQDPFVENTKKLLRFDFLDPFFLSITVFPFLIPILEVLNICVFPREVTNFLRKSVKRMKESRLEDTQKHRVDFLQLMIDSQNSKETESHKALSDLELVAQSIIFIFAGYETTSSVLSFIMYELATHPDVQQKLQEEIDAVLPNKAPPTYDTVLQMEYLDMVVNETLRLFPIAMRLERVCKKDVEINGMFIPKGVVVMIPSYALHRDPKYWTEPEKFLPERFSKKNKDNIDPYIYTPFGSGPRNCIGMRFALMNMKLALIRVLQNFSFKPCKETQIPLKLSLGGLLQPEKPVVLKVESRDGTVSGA

IC50 [1]: > 25 µM
inhibition of CYP1A2 [2]: no inhibition effect
SMILES: O=C1CCC(Cc2ccc(O)c(O)c2)O1 (centres unmarked) [VL, 5‐(3′,4′‐dihydroxyphenyl)‐γ‐valerolactone]
effect on cell viability [3]: no significant effect
effect on cell viability [4]: no significant effect
effect on cell viability [5]: no significant effect
viability at 6 h [6]: > 90%
PXR transcriptional activity, fold increase vs vehicle [7]: does not increase the PXR activity; also recorded: < twofold
PXR transcriptional activity, fold increase vs vehicle [8]: does not increase the PXR activity; also recorded: < twofold
